Reference: US7678787B2, “Pyrrolobenzodiazepine pyridine carboxamides and derivatives as follicle-stimulating hormone receptor antagonists” (Wyeth, priority 2005, dated 2010)
Where a name gives a salt, the structure may show the parent alone.

Key:
human FSH receptor = molecular target: T1, human FSH receptor (Homo sapiens, UniProt P23945); assay: FSH receptor-dependent CRE-luciferase reporter gene assay (CHO FSH-R 6CRE-Luc cells); type: cell-based; conditions: dose-response format in presence of EC50 of purified human FSH; * n=3, ** n=2 averages
T1 construct: host or cells: CHO-K1 (CHO FSH-R 6CRE-Luc, 1D7 cells)
T1 sequence (P23945 18-695): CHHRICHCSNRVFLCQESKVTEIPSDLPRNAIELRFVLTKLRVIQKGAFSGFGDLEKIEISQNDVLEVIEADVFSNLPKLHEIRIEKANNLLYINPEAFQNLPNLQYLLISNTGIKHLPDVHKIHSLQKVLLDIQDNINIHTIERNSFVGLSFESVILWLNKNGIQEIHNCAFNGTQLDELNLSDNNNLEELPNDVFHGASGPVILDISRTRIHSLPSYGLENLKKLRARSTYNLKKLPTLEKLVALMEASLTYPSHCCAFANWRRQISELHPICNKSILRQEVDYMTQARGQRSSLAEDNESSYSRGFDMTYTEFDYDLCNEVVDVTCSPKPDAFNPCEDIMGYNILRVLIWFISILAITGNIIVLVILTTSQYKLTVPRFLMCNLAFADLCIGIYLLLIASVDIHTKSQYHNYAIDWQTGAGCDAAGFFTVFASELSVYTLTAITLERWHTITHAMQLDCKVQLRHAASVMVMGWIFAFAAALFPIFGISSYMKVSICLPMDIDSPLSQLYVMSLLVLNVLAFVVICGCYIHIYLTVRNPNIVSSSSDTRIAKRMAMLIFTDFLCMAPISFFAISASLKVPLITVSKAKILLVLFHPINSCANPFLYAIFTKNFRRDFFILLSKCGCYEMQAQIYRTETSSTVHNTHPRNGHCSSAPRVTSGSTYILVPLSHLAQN
Description: FOLLICLE-STIMULATING HORMONE RECEPTOR-DEPENDENT CRE-LUCIFERASE REPORTER GENE ASSAY FOR THE IDENTIFICATION OF FOLLICLE-STIMULATING HORMONE (FSH) ANTAGONISTS
A Chinese hamster ovarian cell line that stably produces the human FSH receptor and a luciferase reporter gene regulated by cAMP response elements was used to identify and determine the relative potencies of human FSH receptor antagonists. See for example, Kelton, C. A., et al. Mol. Cell. Endocrinol. 89:141-151 (1992), Tilly, J. L., et al. Endocrinology 131:799-806(1992), and George, S. E., et al. J. Biomol. Screening 2:235-240 (1997).
Compound Vehicle: Stock compounds were solubilized in an appropriate vehicle, e.g., phosphate buffered saline (PBS) or dimethyl sulfoxide (DMSO), at 30 mM. The compounds subsequently were diluted in DMSO to working dilutions of 1 and 20 or 30 mM for 2-dose testing format and 1 μM-10 mM for dose-response format. The DMSO dilutions were diluted 500-fold in sterile growth medium [D-MEM/F-12 (GIBCO/BRL; Grand Island, N.Y.) containing 15 mM HEPES, 2 mM l-glutamine, pyridoxine hydrochloride, phenol red and 5% FETALCLONE® II (HyClone Laboratories, Inc; Logan, Utah), 0.2% DMSO, 100 units penicillin G/ml, and 100 μg streptomycin sulfate/ml (GIBCO/BRL)]. The concentration of the vehicle in each of the compound dilutions was the same.
Positive Controls: Purified human FSH (>98%) was purchased from Cortex Biochem, Inc. (San Leandro, Calif.) and 3-[(2S*,5R*)-5-{[2-(1H-Indol-3-yl)-ethylcarbamoyl]-methyl}-4-oxo-2-(5-phenylethynyl-thiophen-2-yl)-thiazolidin-3-yl]-benzamide (an FSH-R thiazolidinone antagonist) was prepared by processes described by R. A. Scheuerman et al. in U.S. Pat. No. 6,426,357 (Affymax).
The CHO FSH-R 6CRE-Luc cells (1D7 cells) were obtained from Affymax (Palo Alto, Calif.). These Chinese hamster ovary cells (CHO-K1) were engineered genetically to stably express the recombinant human FSH receptor gene and a luciferase reporter gene under the regulation of 6 copies of a cAMP response element. The cells were plated one day prior to treatment into 96-well white opaque plates at a density of 50,000 cells/100 μl/well in growth medium. On the day of treatment, the growth medium was removed from the wells by aspiration and 50 μl of fresh growth medium was added to each well. The cells were incubated at 37° C. in a humidified incubator with 5% CO2/95% air.
The treated cells were incubated for 4 hours at 37° C. in a humidified incubator with 5% CO2/95% air. At the end of the incubation period, luciferase activity was measured by chemiluminescence using a commercially available kit (LucScreen, Tropix, Inc., Bedford, Mass.) according to the manufacturer's specifications, except that Buffer 1 and Buffer 2 were mixed together in equal proportion prior to the addition of 100 μl of the combined reagents to each well. Chemiluminescence was detected using a luminometer (EG & G Berthold Microlumat LB 96 P, Wallac, Gaithersburg, Md.) with chemiluminescence measured for 1 sec/well. Background luminescence was measured for each well prior to the addition of the LucScreen reagent.
In the 96-well 2-dose format, each compound was tested in duplicate at each dose. […] One plate was used to test a maximum of 22 compounds.
The EC50 of purified human FSH alone was tested in triplicate with each test compound. The doses chosen to test each compound were extrapolated from the initial 2-dose screening process. Along with the test compounds, purified human FSH also was tested in a dose response (0.03, 0.1, 0.3, 1, 3, 10, and 30 ng/ml) for a positive control and quality control. One plate was used for 3 test compounds and the FSH positive control.
Luciferase activity is expressed as relative light units/sec/well. Luciferase activity in antagonist was compared to the appropriate negative and positive controls. For 2-dose testing, results are reported as luciferase activity and are expressed as percent inhibition of the response obtained from the EC50 of FSH.

Row | melting point | IC50 (human FSH receptor) [µM] | SMILES
1 | 199 to 200 °C | – | Cc1ncc(CNC(=O)c2ccc3n2Cc2ccccc2N(C(=O)CSc2ccc(Br)cc2)C3)c(CO)c1O
2 | 206 to 207 °C | – | CN(C)C(=O)c1ccccc1-c1ccc(C(=O)N2Cc3ccc(C(=O)NCc4cccnc4)n3Cc3ccccc32)cc1
3 | 179 °C | – | COc1cc(C(=O)N2Cc3ccc(C(=O)NCc4c(CO)cnc(C)c4O)n3Cc3ccccc32)ccc1-c1ccccc1C (as salt: hydrochloride) (hydrate or solvate)
4 | 136 to 137 °C | – | O=C(NCc1cccnc1)c1ccc2n1Cc1ccccc1N(C(=O)CSc1ccc(Br)cc1)C2 (as salt: hydrochloride) (hydrate or solvate) [Example 141]
5 | 172 to 175 °C | – | CSc1ccccc1-c1ccc(C(=O)N2Cc3ccc(C(=O)NCc4cccnc4)n3Cc3ccccc32)cc1 (hydrate or solvate) [Example 14, 10-{[2′-(METHYLTHIO)-1,1′-BIPHENYL-4-YL]CARBONYL}-N-(PYRIDIN-3-YLMETHYL)-10,11-DIHYDRO-5H-PYRROLO[2,1-C][1,4]BENZODIAZEPINE-3-CARBOXAMIDE 0.67 HYDRATE]
6 | 159 to 161 °C | – | NS(=O)(=O)c1cc(C(=O)N2Cc3ccc(C(=O)NCc4cccnc4)n3Cc3ccccc32)ccc1N1CCOCC1 (hydrate or solvate) [Example 114, 10-[3-(AMINOSULFONYL)-4-MORPHOLIN-4-YLBENZOYL]-N-(PYRIDIN-3-YLMETHYL)-10,11-DIHYDRO-5H-PYRROLO[2,1-C][1,4]BENZODIAZEPINE-3-CARBOXAMIDE HEMIHYDRATE]
7 | – | 17 | COc1ccccc1-c1ccc(C(=O)N2Cc3ccc(C(=O)NCC(c4cccnc4)N4CCCC4)n3Cc3ccccc32)cc1 (stereo not shown) [Example 9, 10-[(2′-METHOXY-1,1′-BIPHENYL-4-YL)CARBONYL]-N-(2-PYRIDIN-3-YL-2-PYRROLIDIN-1-YLETHYL)-10,11-DIHYDRO-5H-PYRROLO[2,1-C][1,4]BENZODIAZEPINE-3-CARBOXAMIDE]
8 | 216 to 218 °C (dec.) | 16.4 | Cc1cccc(C)c1-c1ccc(C(=O)N2Cc3ccc(C(=O)NCc4cccnc4)n3Cc3ccccc32)cc1 [Example 12]
9 | 153 to 156 °C | 0.994 | NS(=O)(=O)c1ccccc1-c1ccc(C(=O)N2Cc3ccc(C(=O)NCc4cccnc4)n3Cc3ccccc32)cc1 [Example 16]
10 | 164 to 167 °C | 2.4 | O=C(NCc1cccnc1)c1ccc2n1Cc1ccccc1N(C(=O)c1ccc(-c3ccccc3Cc3nnn[nH]3)cc1)C2 [Example 19]
11 | – | 15 | Cc1ccc(-c2ccc(C(=O)N3Cc4ccc(C(=O)NCc5cccnc5)n4Cc4ccccc43)cc2C)cc1 [Example 22]
12 | – | > 30 | CC(=O)c1ccc(-c2ccc(C(=O)N3Cc4ccc(C(=O)NCc5cccnc5)n4Cc4ccccc43)cc2C)cc1 [Example 26]
13 | – | 22.7 | Cc1ccccc1-c1cccc(C(=O)N2Cc3ccc(C(=O)NCc4cccnc4)n3Cc3ccccc32)c1 [Example 27]
14 | – | 31 | O=C(O)Cc1ccccc1-c1ccc(C(=O)N2Cc3ccc(C(=O)NCc4cccnc4)n3Cc3ccccc32)cc1 [Example 35, (4′-{[3-{[(PYRIDIN-3-YLMETHYL)AMINO]CARBONYL}-5H-PYRROLO[2,1-C][1,4]BENZODIAZEPIN-10(11H)-YL]CARBONYL}-1,1′-BIPHENYL-2-YL)ACETIC ACID]
15 | 210 to 212 °C | 25.1 | O=C(NCc1cccnc1)c1ccc2n1Cc1ccccc1N(C(=O)c1ccc(-c3ccccc3CN3CCCC3)cc1)C2 [Example 41]
16 | – | 29.1 | CCN(CC)C(=O)Cc1ccccc1-c1ccc(C(=O)N2Cc3ccc(C(=O)NCc4cccnc4)n3Cc3ccccc32)cc1 [Example 67]
17 | 197 °C | – | O=C(NCc1cccnc1)c1ccc2n1Cc1ccccc1N(C(=O)c1ccccc1)C2 [Example 76]

Row | melting point | IC50 (human FSH receptor) [µM] | SMILES
18 | – | 18.8 | Cc1ccc(C(=O)N2Cc3ccc(C(=O)NCc4cccnc4)n3Cc3ccccc32)cc1 [Example 77]
19 | – | 17.8 | O=C(NCc1cccnc1)c1ccc2n1Cc1ccccc1N(C(=O)c1ccc(C(F)(F)F)cc1)C2 [Example 79]
20 | – | 16.6 | Cc1cccc(C(=O)N2Cc3ccc(C(=O)NCc4cccnc4)n3Cc3ccccc32)c1 [Example 83]
21 | – | 9.9 | O=C(NCc1cccnc1)c1ccc2n1Cc1ccccc1N(C(=O)c1cccc(C(F)(F)F)c1)C2 [Example 92]
22 | 169 to 171 °C | – | O=C(NCc1cccnc1)c1ccc2n1Cc1ccccc1N(C(=O)c1ccc3c(c1)OCO3)C2 [Example 96]
23 | – | 31.5 | O=C(NCc1cccnc1)c1ccc2n1Cc1ccccc1N(C(=O)c1ccc(F)c(F)c1)C2 [Example 100]
24 | – | 12 | O=C(NCc1cccnc1)c1ccc2n1Cc1ccccc1N(C(=O)c1ccc(Oc3ccccc3)cc1)C2 [Example 101]
25 | – | > 30 | NS(=O)(=O)c1cc(C(=O)N2Cc3ccc(C(=O)NCc4cccnc4)n3Cc3ccccc32)ccc1N1CCOCC1 [Example 114, 10-[3-(AMINOSULFONYL)-4-MORPHOLIN-4-YLBENZOYL]-N-(PYRIDIN-3-YLMETHYL)-10,11-DIHYDRO-5H-PYRROLO[2,1-C][1,4]BENZODIAZEPINE-3-CARBOXAMIDE HEMIHYDRATE]
26 | – | > 30 | O=C(NCc1cccnc1)c1ccc2n1Cc1ccccc1N(C(=O)c1ccccn1)C2 [Example 116]
27 | – | 27.7 | O=C(NCc1cccnc1)c1ccc2n1Cc1ccccc1N(C(=O)c1cc(Cl)sc1Cl)C2 [Example 118]
28 | – | 49.6 | COc1ccccc1CNc1ccc(C(=O)N2Cc3ccc(C(=O)NCc4cccnc4)n3Cc3ccccc32)cn1 [Example 120]
29 | – | 18.7 | O=C(NCc1cccnc1)c1ccc2n1Cc1ccccc1N(C(=O)c1ccc(NCCc3ccccc3)nc1)C2 [Example 126]
30 | – | 15.8 | O=C(NCc1cccnc1)c1ccc2n1Cc1ccccc1N(C(=O)c1ccc(NCc3cccnc3)nc1)C2 [Example 131]
31 | – | 14.5 | CCCCNc1ccc(C(=O)N2Cc3ccc(C(=O)NCc4cccnc4)n3Cc3ccccc32)cn1 [Example 133]
32 | – | 11.3 | O=C(NCc1cccnc1)c1ccc2n1Cc1ccccc1N(C(=O)c1ccc3ccccc3c1)C2 [Example 146]
33 | 116 to 119 °C | – | O=C(NCc1cccnc1)c1ccc2n1Cc1ccccc1N(C(=O)c1ccc3c(c1)Cc1ccccc1-3)C2 [Example 147]
